Results as given in patent US7598377B2, “Inhibition of phosphoinositide 3-kinase β” (AstraZeneca AB, priority 2002, dated 2009).
pIC50: −log10 of the molar value.

Legend:
p110α-PI3K = target: T1, p110α-PI3K (Homo sapiens, UniProt P42336); assay: In vitro enzyme assay, p110α immunoprecipitated from platelet lysate (Biological Example 1); assay type: biochemical; details: Table I; read-out: inhibitory concentration, alpha
T1 construct: The α and β isoforms of the PI3K were immunoprecipitated from a platelet lysate; from tissue; host or cells: washed platelets (lysate, immunoprecipitated with anti-p110α antibody)
Description: (§1) For each immunoprecipitation, 1 mg of lysate was incubated with an anti-p110α (1 μg), anti-p110β (1 μg), anti-p110δ (1 μg) or anti-PI4 kinase antibody (2-5 μg) and 50 μl of a 50% slurry of protein A beads overnight at 4° C. […] For PI4 kinase assays, protein A beads-immune complexes were also washed twice with lysis buffer, prior to two washes with 1× PI4 kinase assay buffer (20 mM Hepes, pH 7.5, 10 mM MgCl2, 0.3% Triton X-100) and the addition of other assay constituents, as described above. All reactions were terminated by the addition of 100 μl 1 M HCl, 200 μl choloroform/methanol (1:1) and 500 μl 2 M KCl and lipids extracted by centrifugation at 15,000×g for 2 minutes. The production of PI3 or PI4 kinase lipid products, PtdIns(3)P and PtdIns(4)P, were confirmed through TLC analysis. The lipid spots were then removed from the TLC plate and the level of radioactivity quantified to accurately determine the level of PtdIns(3)P/PtdIns(4)P production.

p110β-PI3K = target: T2, p110β-PI3K (Homo sapiens, UniProt P42338); assay: In vitro enzyme assay, p110β immunoprecipitated from platelet lysate (Biological Example 1); assay type: biochemical; details: Table I; for pIC50: read-out: inhibitory concentration, beta
T2 construct: The α and β isoforms of the PI3K were immunoprecipitated from a platelet lysate; from tissue; host or cells: washed platelets (lysate, immunoprecipitated with anti-p110β antibody)
Description: as §1, with “The production of PI3 or PI4 kinase lipid products, PtdIns(3)P and PtdIns(4)P, were confirmed through TLC analysis.” left out

p110γ-PI3K = p110γ-PI3K (Homo sapiens, UniProt P48736); assay: In vitro enzyme assay, p110γ recombinant protein (Biological Example 1); assay type: biochemical; details: Table I; read-out: inhibitory concentration, gamma
Description: Reactions were terminated and lipid products analysed as described above for the other PI 3-kinase isoforms assays.

p110δ-PI3K = target: T3, p110δ-PI3K (Homo sapiens, UniProt O00329); assay: In vitro enzyme assay, p110δ immunoprecipitated from platelet lysate (Biological Example 1); assay type: biochemical; details: Table I; read-out: inhibitory concentration, delta
T3 construct: from tissue; host or cells: washed platelets (lysate, immunoprecipitated with anti-p110δ antibody)
Description: as §1

[1] = test system: platelets on immobilized vWf; assay: In vitro flow studies: platelet calcium flux and adhesion on immobilized vWf; assay type: cell-based; details: vWf matrix, shear rate gradient up to 10,000 s^−1 over 1 s
Description: The use of an in vitro-flow based adhesion assay enables us to simultaneously analyze platelet adhesion dynamics and activation (by monitoring cytosolic calcium flux) on immobilized von Willebrand factor (vWf). Briefly, isolated platelets are perfused through vWf (100 μg/ml) coated microcapillary tubes and analysis of cytosolic calcium flux conducted in real-time by confocal microscopy.
Washed platelets (1.5×10^9) suspended in PWB were incubated with the calcium indicator dyes, Oregon Green 488 BAPTA-1, AM (1 μM) and Fura Red, AM (1.25 μM), for 30 min at 37° C. Platelets were washed twice with PWB prior to being resuspended in Tyrode's buffer containing 1 mM calcium.
For static adhesion assays, platelets were allowed to settle on the surface of vWf-coated coverslips for 30 min at 37° C. For flow assays, platelets were either perfused over a vWf-coated microcapillary tube at a constant shear rate of 600, 1800 or 10,000 s^−1 or allowed to settle on the surface of a vWf-coated microcapillary tube prior to being accelerated through a shear gradient of 10,000 s^−1 over a 1 s interval. Real time platelet calcium flux in individual platelets was monitored at 1 s intervals over the 30 min incubation period or at 0.586 s intervals for up to 175 s for static and flow-based assays, respectively.

T3 sequence (O00329 whole entry): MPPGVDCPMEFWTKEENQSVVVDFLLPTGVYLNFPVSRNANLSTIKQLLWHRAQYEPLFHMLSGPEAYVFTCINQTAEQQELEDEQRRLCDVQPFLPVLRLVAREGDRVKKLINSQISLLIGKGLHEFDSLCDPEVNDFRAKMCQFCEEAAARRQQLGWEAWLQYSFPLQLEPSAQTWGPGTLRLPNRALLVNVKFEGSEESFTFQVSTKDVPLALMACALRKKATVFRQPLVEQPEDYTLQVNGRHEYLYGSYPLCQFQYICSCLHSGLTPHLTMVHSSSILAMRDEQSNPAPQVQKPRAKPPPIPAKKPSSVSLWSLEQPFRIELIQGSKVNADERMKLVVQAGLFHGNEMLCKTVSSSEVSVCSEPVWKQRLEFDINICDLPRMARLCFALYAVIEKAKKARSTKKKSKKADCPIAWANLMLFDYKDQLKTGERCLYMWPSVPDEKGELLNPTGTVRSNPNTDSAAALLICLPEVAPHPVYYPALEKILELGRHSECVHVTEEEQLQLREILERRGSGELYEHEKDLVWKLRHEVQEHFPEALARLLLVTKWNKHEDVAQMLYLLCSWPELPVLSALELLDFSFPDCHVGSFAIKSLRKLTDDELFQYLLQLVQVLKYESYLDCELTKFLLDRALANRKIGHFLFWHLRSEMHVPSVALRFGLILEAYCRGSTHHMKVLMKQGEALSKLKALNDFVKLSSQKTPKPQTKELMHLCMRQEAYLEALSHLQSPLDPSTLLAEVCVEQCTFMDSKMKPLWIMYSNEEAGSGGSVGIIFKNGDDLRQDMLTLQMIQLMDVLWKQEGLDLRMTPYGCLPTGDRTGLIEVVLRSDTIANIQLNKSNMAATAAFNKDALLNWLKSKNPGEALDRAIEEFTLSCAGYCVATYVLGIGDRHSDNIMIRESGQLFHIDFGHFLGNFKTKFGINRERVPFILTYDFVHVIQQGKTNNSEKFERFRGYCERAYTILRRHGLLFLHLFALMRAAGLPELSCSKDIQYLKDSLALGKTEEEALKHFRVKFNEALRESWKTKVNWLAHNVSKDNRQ
T3 sequence (P27986 whole entry partner): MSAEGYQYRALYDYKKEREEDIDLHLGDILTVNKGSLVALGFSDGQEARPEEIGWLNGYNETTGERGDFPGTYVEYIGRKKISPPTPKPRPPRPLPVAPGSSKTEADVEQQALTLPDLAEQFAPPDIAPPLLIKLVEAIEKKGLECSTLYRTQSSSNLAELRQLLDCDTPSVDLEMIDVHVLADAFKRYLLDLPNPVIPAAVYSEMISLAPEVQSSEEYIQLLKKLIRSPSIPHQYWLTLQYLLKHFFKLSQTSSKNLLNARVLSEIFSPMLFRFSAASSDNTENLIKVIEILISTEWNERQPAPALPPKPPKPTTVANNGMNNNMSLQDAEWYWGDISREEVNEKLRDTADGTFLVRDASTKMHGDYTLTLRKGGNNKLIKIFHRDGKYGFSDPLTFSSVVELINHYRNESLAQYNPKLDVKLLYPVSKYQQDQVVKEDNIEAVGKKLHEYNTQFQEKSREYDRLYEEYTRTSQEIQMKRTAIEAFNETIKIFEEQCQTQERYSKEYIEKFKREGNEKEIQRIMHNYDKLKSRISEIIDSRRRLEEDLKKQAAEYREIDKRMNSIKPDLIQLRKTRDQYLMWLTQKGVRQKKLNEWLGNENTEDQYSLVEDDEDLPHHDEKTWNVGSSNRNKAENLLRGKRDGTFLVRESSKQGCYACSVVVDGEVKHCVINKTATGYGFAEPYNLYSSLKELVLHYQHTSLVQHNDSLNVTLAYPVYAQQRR
T1 sequence (P42336 whole entry, canonical isoform): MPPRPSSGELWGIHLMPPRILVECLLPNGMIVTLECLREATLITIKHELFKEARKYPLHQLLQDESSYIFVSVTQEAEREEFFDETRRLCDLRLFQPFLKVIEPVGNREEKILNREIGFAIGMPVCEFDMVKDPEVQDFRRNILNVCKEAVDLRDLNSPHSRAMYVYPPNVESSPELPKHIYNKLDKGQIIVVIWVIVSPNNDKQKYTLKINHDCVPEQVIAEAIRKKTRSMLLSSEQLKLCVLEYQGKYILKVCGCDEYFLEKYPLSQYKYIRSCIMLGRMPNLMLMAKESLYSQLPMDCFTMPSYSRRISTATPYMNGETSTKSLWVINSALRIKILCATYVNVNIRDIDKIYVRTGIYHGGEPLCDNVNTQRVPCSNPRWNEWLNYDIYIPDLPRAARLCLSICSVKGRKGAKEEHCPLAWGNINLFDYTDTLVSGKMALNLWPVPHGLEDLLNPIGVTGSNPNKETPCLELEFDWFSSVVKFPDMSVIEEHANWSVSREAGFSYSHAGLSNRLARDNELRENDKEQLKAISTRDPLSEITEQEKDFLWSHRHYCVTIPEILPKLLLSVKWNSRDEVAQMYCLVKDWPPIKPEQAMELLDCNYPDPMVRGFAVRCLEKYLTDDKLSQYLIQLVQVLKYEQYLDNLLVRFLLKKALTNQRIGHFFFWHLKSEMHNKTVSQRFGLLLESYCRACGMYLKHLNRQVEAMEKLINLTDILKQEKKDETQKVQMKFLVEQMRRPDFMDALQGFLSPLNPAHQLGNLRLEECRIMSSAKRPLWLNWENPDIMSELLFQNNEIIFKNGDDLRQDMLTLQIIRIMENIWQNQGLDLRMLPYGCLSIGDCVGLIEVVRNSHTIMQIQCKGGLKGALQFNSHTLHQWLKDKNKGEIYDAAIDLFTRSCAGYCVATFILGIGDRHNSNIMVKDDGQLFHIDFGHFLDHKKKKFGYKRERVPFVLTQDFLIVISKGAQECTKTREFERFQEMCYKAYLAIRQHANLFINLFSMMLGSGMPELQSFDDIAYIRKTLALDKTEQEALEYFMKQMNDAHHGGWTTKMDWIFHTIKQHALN
T1 sequence (P27986 whole entry partner, canonical isoform): as the sequence (P27986 whole entry partner) above
T2 sequence (P42338 whole entry, canonical isoform): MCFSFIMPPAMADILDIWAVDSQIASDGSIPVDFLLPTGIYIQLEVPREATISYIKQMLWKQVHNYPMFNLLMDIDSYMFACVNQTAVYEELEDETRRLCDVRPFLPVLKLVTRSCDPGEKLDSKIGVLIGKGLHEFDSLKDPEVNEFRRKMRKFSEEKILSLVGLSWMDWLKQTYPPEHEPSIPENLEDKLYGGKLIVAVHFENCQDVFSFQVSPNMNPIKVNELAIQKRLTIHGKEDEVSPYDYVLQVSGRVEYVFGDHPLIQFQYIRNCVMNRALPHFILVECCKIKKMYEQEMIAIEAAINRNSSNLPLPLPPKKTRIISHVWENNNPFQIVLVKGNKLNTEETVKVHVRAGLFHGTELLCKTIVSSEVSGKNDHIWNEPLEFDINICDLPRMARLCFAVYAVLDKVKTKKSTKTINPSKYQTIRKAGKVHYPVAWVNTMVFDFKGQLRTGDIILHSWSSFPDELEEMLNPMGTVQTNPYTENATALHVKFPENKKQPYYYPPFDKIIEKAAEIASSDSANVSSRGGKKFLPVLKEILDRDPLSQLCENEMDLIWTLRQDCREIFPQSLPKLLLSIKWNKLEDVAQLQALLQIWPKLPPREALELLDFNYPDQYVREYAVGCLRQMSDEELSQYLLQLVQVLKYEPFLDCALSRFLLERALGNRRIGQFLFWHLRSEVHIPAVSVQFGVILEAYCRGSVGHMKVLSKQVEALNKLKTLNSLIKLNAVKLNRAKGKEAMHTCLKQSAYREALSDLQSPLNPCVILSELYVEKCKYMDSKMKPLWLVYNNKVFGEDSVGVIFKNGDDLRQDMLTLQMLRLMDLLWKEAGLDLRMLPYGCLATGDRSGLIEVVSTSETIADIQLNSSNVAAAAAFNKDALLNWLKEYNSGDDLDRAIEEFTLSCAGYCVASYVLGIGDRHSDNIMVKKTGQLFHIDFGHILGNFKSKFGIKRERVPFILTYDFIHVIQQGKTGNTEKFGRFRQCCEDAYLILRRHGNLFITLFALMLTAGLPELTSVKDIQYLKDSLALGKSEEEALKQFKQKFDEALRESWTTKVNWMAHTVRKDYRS
T2 sequence (P27986 whole entry partner, canonical isoform): as the sequence (P27986 whole entry partner) above
Chain of p110γ-PI3K (P48736 whole entry, canonical isoform): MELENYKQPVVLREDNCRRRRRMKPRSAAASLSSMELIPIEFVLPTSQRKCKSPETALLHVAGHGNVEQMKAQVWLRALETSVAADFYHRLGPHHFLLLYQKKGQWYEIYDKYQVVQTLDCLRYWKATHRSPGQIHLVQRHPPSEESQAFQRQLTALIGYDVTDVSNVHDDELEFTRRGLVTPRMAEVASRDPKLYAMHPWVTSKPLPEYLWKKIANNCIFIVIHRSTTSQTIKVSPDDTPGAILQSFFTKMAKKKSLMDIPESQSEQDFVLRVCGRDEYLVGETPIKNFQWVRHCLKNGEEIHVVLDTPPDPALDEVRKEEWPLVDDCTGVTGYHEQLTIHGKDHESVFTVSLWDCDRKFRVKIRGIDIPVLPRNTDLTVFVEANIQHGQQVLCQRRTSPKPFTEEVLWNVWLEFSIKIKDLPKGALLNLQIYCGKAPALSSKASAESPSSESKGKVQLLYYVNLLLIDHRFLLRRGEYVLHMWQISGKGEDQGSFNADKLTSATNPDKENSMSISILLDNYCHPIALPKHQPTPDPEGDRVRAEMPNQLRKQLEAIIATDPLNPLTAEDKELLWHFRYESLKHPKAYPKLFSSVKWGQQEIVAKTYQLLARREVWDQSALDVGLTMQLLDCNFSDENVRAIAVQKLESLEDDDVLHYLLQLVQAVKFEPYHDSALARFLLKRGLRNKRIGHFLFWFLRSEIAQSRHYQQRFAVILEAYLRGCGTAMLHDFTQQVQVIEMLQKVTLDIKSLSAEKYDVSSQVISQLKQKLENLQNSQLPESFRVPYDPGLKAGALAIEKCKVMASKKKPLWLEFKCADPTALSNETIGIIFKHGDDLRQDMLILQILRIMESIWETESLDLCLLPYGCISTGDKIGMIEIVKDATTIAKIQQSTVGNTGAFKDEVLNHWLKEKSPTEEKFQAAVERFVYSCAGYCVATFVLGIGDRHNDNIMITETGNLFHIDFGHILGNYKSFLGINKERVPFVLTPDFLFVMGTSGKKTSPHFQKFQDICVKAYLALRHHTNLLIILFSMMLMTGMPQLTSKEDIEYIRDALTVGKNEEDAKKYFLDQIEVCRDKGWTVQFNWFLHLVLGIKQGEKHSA

pIC50 (p110α-PI3K)	Ratio δ/β (p110β-PI3K)	pIC50 (p110β-PI3K)	pIC50 (p110γ-PI3K)	pIC50 (p110δ-PI3K)	SMILES	platelet responses to accelerated shear [1]
< 5.30	25.00	7.70	< 5.30	6.30	Cc1cc(CN(C)c2ccccc2)c2nc(N3CCOCC3)cc(=O)n2c1 (racemic) [TGX-195, (±)-7-methyl-9-{[methyl(phenyl)amino]methyl}-2-morpholin-4-yl-pyrido[1,2-a]pyrimidin-4-one]	
< 5.30	11.43	8.15	< 5.30	7.10	Cc1cc(C(C)Nc2cc(F)cc(F)c2)c2nc(N3CCOCC3)cc(=O)n2c1 (racemic) [TGX-239, (±)-9-[1-(3,5-difluorophenylamino)ethyl]-7-methyl-2-morpholin-4-yl-pyrido[1,2-a]pyrimidin-4-one]	
< 5.30	40.00	7.30	< 5.30	5.70	Cc1cc(C(C)Nc2ccc(Cl)cc2)c2nc(N3CCOCC3)cc(=O)n2c1 (racemic) [TGX-243, (±)-9-[1-(4-chlorophenylamino)ethyl]-7-methyl-2-morpholin-4-yl-pyrido[1,2-a]pyrimidin-4-one]	
< 5.30	20.00	7.30	< 5.30	6.00	Cc1cc(C(C)Nc2ccc(Cl)c(Cl)c2)c2nc(N3CCOCC3)cc(=O)n2c1 (racemic) [TGX-244, (±)-9-[1-(3,4-dichlorophenylamino)ethyl]-7-methyl-2-morpholin-4-yl-pyrido[1,2-a]pyrimidin-4-one]	
< 5.30	10.00	8.00	< 5.30	7.00	Cc1cc(C(C)Nc2cccc(Cl)c2)c2nc(N3CCOCC3)cc(=O)n2c1 (racemic) [TGX-248, (±)-9-[1-(3-chlorophenylamino)ethyl]-7-methyl-2-morpholin-4-yl-pyrido[1,2-a]pyrimidin-4-one]	
< 5.30	20.00	7.30	< 5.30	6.00	Cc1cccc(NC(C)c2cc(C)cn3c(=O)cc(N4CCOCC4)nc23)c1 (racemic) [TGX-262, (±)-7-methyl-9-[1-(3-methylphenylamino)ethyl]-2-morpholin-4-yl-pyrido[1,2-a]pyrimidin-4-one]	
< 5.30	133.33	7.12	< 5.30	5.00	Cc1cc(C(C)Nc2cccc(C(F)(F)F)c2)c2nc(N3CCOCC3)cc(=O)n2c1 (racemic) [TGX-264, (±)-7-methyl-2-morpholin-4-yl-9-[1-(3-trifluoromethylphenylamino)ethyl]-pyrido[1,2-a]pyrimidin-4-one]	
< 5.30	40.00	7.30	< 5.30	5.70	Cc1cc(C(C)Nc2ccccn2)c2nc(N3CCOCC3)cc(=O)n2c1 (racemic) [TGX-295, (±)-7-methyl-2-morpholin-4-yl-9-[1-(2-pyridinylamino)ethyl]-pyrido[1,2-a]pyrimidin-4-one]	
					COC[C@H]1OC(=O)c2coc3c2[C@@]1(C)C1=C(C3=O)[C@@H]2CCC(=O)[C@@]2(C)C[C@H]1OC(C)=O [wortmannin, reference compound]	eliminates platelet responses to accelerated shear
